Reference: patent publication US11780841B2, “3,6-methano-1H-pyrrolo[3,2-b]pyridine and 3,6-methano-1H-pyrrolo[3,2-c]pyridine compounds and medicaments using same” (priority 2018, dated 2023)

tested on: recombinant rabies virus 1088 strain expressing Gaussia Luciferase (GLuc) (1088/GLuc); type: cell-based; conditions: read-out: Anti-rabies activity

Compound	IC50 [µM]
CCCCCCNC(=O)C12NCC3CC1CN(CCC(C)C)C2C3CC(C)C (stereo not shown) [IB-551]	< 5
CC(C)CCN1CC2CC3CNC2(C(=O)NCc2ccc(F)cc2)C1C3CC(C)C (stereo not shown) [IB-553]	< 5
CCCCCCNC(=O)C12NCC3CC1CN(Cc1ccccc1)C2C3Cc1ccccc1 (stereo not shown) [IB-562]	10 to 30
O=C(NCc1ccc(F)cc1)C12NCC3CC1CN(Cc1ccccc1)C2C3CCc1ccccc1 (stereo not shown) [IB-568]	10 to 30
CC(C)CCNC(=O)C12NCC3CC1CN(Cc1ccc(O)cc1)C2C3Cc1ccccc1 (stereo not shown) [IB-574]	10 to 30
CC(C)CNC(=O)C12NCC3CC1CN(CCC(=O)O)C2C3Cc1cccc2ccccc12 (stereo not shown) [IB-575]	10 to 30
CC(C)CCN1CC2CC3CNC2(C(=O)NCc2ccc(O)cc2)C1C3CCc1ccccc1 (stereo not shown) [IB-576]	10 to 30
CC(C)CCN1CC2CC3CNC2(C(=O)NCc2ccc(O)cc2)C1C3Cc1ccccc1 (stereo not shown) [IB-577]	10 to 30
CC(C)CC1C2CNC3(C(=O)NCc4ccc(O)cc4)C(C2)CN(CC2CCCCC2)C13 (stereo not shown) [IB-581]	10 to 30
CC(C)CCC1C2CNC3(C(=O)NCc4ccc(O)cc4)C(C2)CN(Cc2ccc(F)cc2)C13 (stereo not shown) [IB-582]	10 to 30
O=C(NCc1ccc(O)cc1)C12NCC3CC1CN(Cc1ccc(F)cc1)C2C3Cc1ccccc1 (stereo not shown) [IB-583]	10 to 30
CC(C)CC1C2CNC3(C(=O)NCc4cccc5ccccc45)C(C2)CN(CCO)C13 (stereo not shown) [IB-585]	10 to 30
O=C(NCCO)C12NCC3CC1CN(Cc1cccc4ccccc14)C2C3Cc1ccccc1 (stereo not shown) [IB-588]	< 5
O=C(NCCO)[C@]12NC[C@H]3C[C@H]1CN(CCc1ccccc1)[C@H]2[C@@H]3Cc1cccc2ccccc12 [IB-593]	10 to 30
O=C(NCCO)[C@]12NC[C@H]3C[C@H]1CN(Cc1ccccc1)[C@H]2[C@@H]3Cc1cccc2ccccc12 [IB-602]	10 to 30
O=C(O)CCNC(=O)[C@]12NC[C@H]3C[C@H]1CN(CCO)[C@H]2[C@@H]3Cc1cccc2ccccc12 [IB-610]	10 to 30
CC(C)CCN1C[C@@H]2C[C@@H]3CN[C@]2(C(=O)NCCC(=O)O)[C@@H]1[C@@H]3CC(C)C [IB-611]	10 to 30
CC(C)CC[C@@H]1[C@H]2CN[C@@]3(C(=O)NCCC(=O)O)[C@@H](C2)CN(CC2CCCCC2)[C@@H]13 [IB-613]	10 to 30
O=C(O)CCNC(=O)[C@]12NC[C@H]3C[C@H]1CN(CC1CCCCC1)[C@H]2[C@@H]3Cc1cccc2ccccc12 [IB-614]	10 to 30
O=C(O)CCNC(=O)[C@]12NC[C@H]3C[C@H]1CN(Cc1ccccc1)[C@H]2[C@@H]3Cc1cccc2ccccc12 [IB-616]	10 to 30
O=C(NCc1ccccc1)[C@]12NC[C@H]3C[C@H]1CN(CCO)[C@H]2[C@@H]3CCc1ccccc1 [IB-618]	< 5
O=C(NCc1ccccc1)[C@]12NC[C@H]3C[C@H]1CN(CCO)[C@H]2[C@@H]3Cc1ccccc1 [IB-619]	10 to 30
CC(C)CNC(=O)[C@]12NC[C@H]3C[C@H]1CN(CCO)[C@H]2[C@@H]3Cc1cccc2ccccc12 [IB-621]	< 5
CC(C)CNC(=O)[C@]12NC[C@H]3C[C@H]1CN(CCc1ccccc1)[C@H]2[C@@H]3Cc1ccc(O)cc1 [IB-625]	10 to 30
CC(C)CNC(=O)[C@]12NC[C@H]3C[C@H]1CN(Cc1ccc(F)cc1)[C@H]2[C@@H]3CC(C)C [IB-630]	< 5

Compound	IC50 [µM]
CC(C)CNC(=O)[C@]12NC[C@H]3C[C@H]1CN(Cc1ccc(F)cc1)[C@H]2[C@@H]3Cc1ccc(O)cc1 [IB-631]	10 to 30
CC(C)CNC(=O)[C@]12NC[C@H]3C[C@H]1CN(CC(C)C)[C@H]2[C@@H]3CCc1ccccc1 [IB-633]	< 5
CC(C)CCN1C[C@@H]2C[C@@H]3CN[C@]2(C(=O)NCCC(N)=O)[C@@H]1[C@@H]3CCc1ccccc1 [IB-636]	10 to 30
NC(=O)CCNC(=O)[C@]12NC[C@H]3C[C@H]1CN(CC1CCCCC1)[C@H]2[C@@H]3Cc1ccccc1 [IB-637]	< 5
O=C(NCCO)[C@]12NC[C@H]3C[C@H]1CN(CCc1ccccc1)[C@H]2[C@@H]3Cc1ccccc1 [IB-640]	< 5
CC(C)C[C@@H]1[C@H]2CN[C@@]3(C(=O)NCCO)[C@@H](C2)CN(CCc2ccccc2)[C@@H]13 [IB-641]	10 to 30
O=C(NCc1ccc(F)cc1)[C@]12NC[C@H]3C[C@H]1CN(CCc1ccccc1)[C@H]2[C@@H]3Cc1ccc(O)cc1 [IB-642]	< 5
CC(C)C[C@@H]1[C@H]2CN[C@@]3(C(=O)NCCO)[C@@H](C2)CN(Cc2cccc4ccccc24)[C@@H]13 [IB-643]	10 to 30
CC(C)C[C@@H]1[C@H]2CN[C@@]3(C(=O)NCCO)[C@@H](C2)CN(CC2CCCCC2)[C@@H]13 [IB-646]	10 to 30
CC(C)CCNC(=O)[C@]12NC[C@H]3C[C@H]1CN(CC1CCCCC1)[C@H]2[C@@H]3Cc1ccc(O)cc1 [IB-648]	10 to 30
O=C(NCCO)[C@]12NC[C@H]3C[C@H]1CN(Cc1ccc(F)cc1)[C@H]2[C@@H]3Cc1ccccc1 [IB-649]	10 to 30
CC(C)C[C@@H]1[C@H]2CN[C@@]3(C(=O)NCCO)[C@@H](C2)CN(Cc2ccc(F)cc2)[C@@H]13 [IB-650]	10 to 30
CCCCCCNC(=O)[C@]12NC[C@H]3C[C@H]1CN(Cc1ccc(F)cc1)[C@H]2[C@@H]3Cc1ccc(O)cc1 [IB-656]	< 5
CC(C)CC[C@@H]1[C@H]2CN[C@@]3(C(=O)NCc4ccc(F)cc4)[C@@H](C2)CN(CCO)[C@@H]13 [IB-657]	10 to 30
CC(C)CCN1C[C@@H]2C[C@@H]3CN[C@]2(C(=O)NCCO)[C@@H]1[C@@H]3CCc1ccccc1 [IB-658]	10 to 30
CC(C)CCN1C[C@@H]2C[C@@H]3CN[C@]2(C(=O)NCCO)[C@@H]1[C@@H]3Cc1cccc2ccccc12 [IB-659]	< 5
O=C(NCCO)[C@]12NC[C@H]3C[C@H]1CN(CC1CCCCC1)[C@H]2[C@@H]3CCc1ccccc1 [IB-663]	< 5
CC(C)CC[C@@H]1[C@H]2CN[C@@]3(C(=O)NCCO)[C@@H](C2)CN(Cc2ccc(F)cc2)[C@@H]13 [IB-668]	< 5
O=C(NCCO)[C@]12NC[C@H]3C[C@H]1CN(Cc1ccc(F)cc1)[C@H]2[C@@H]3CCc1ccccc1 [IB-669]	10 to 30
O=C(NCCO)[C@]12NC[C@H]3C[C@H]1CN(Cc1ccccc1)[C@H]2[C@@H]3Cc1ccccc1 [IB-676]	10 to 30
CC(C)CCNC(=O)[C@]12NC[C@H]3C[C@H]1CN(Cc1ccccc1)[C@H]2[C@@H]3Cc1ccc(O)cc1 [IB-678]	< 5
CC(C)CC[C@@H]1[C@H]2CN[C@@]3(C(=O)NCCO)[C@@H](C2)CN(Cc2ccccc2)[C@@H]13 [IB-680]	10 to 30
O=C(NCCO)[C@]12NC[C@H]3C[C@H]1CN(Cc1ccccc1)[C@H]2[C@@H]3CCc1ccccc1 [IB-681]	10 to 30
CC(C)CCNC(=O)[C@]12NC[C@H]3C[C@H]1CN(CC(C)C)[C@H]2[C@@H]3Cc1ccc(O)cc1 [IB-684]	10 to 30
CC(C)CN1C[C@@H]2C[C@@H]3CN[C@]2(C(=O)NCCO)[C@@H]1[C@@H]3Cc1cccc2ccccc12 [IB-687]	10 to 30

Compound	IC50 [µM]
CC(C)CCNC(=O)[C@]12NC[C@H]3C[C@H]1CN(CC(C)C)[C@H]2[C@@H]3CCc1ccccc1 [IB-688]	< 5
CC(C)CC[C@@H]1[C@H]2CN[C@@]3(C(=O)NCc4ccccc4)[C@@H](C2)CN(CCC(=O)O)[C@@H]13 [IB-694]	10 to 30
CC(C)CCN1C[C@@H]2C[C@@H]3CN[C@]2(C(=O)NCCC(N)=O)[C@@H]1[C@@H]3Cc1cccc2ccccc12 [IB-703]	< 5
NC(=O)CCNC(=O)[C@]12NC[C@H]3C[C@H]1CN(CCc1ccccc1)[C@H]2[C@@H]3Cc1ccccc1 [IB-707]	< 5
CC(C)C[C@@H]1[C@H]2CN[C@@]3(C(=O)NCCC(N)=O)[C@@H](C2)CN(CCc2ccccc2)[C@@H]13 [IB-708]	< 5
NC(=O)CCNC(=O)[C@]12NC[C@H]3C[C@H]1CN(CC1CCCCC1)[C@H]2[C@@H]3CCc1ccccc1 [IB-710]	< 5
NC(=O)CCNC(=O)[C@]12NC[C@H]3C[C@H]1CN(Cc1ccc(F)cc1)[C@H]2[C@@H]3Cc1ccccc1 [IB-712]	< 5
CC(C)CCNC(=O)[C@]12NC[C@H]3C[C@H]1CN(CCO)[C@H]2[C@@H]3Cc1ccccc1 [IB-714]	< 5
CC(C)C[C@@H]1[C@H]2CN[C@@]3(C(=O)NCCc4ccccc4)[C@@H](C2)CN(Cc2ccc(F)cc2)[C@@H]13 [IB-725]	< 5
CC(C)CCNC(=O)[C@]12NC[C@H]3C[C@H]1CN(CCO)[C@H]2[C@@H]3Cc1cccc2ccccc12 [IB-727]	< 5
NC(=O)CCNC(=O)[C@]12NC[C@H]3C[C@H]1CN(Cc1ccccc1)[C@H]2[C@@H]3Cc1ccccc1 [IB-734]	10 to 30
CC(C)CN1C[C@@H]2C[C@@H]3CN[C@]2(C(=O)NCCC(N)=O)[C@@H]1[C@@H]3Cc1cccc2ccccc12 [IB-737]	10 to 30
CC(C)CCNC(=O)[C@]12NC[C@H]3C[C@H]1CN(Cc1ccc(O)cc1)[C@H]2[C@@H]3CC(C)C [IB-739]	10 to 30
NC(=O)CCNC(=O)[C@]12NC[C@H]3C[C@H]1CN(Cc1ccc(O)cc1)[C@H]2[C@@H]3Cc1cccc2ccccc12 [IB-743]	< 5
CC(C)CCN1C[C@@H]2C[C@@H]3CN[C@]2(C(=O)NCc2ccccc2)[C@@H]1[C@@H]3Cc1ccc(O)cc1 [IB-749]	10 to 30
CC(C)CCN1C[C@@H]2C[C@@H]3CN[C@]2(C(=O)NCC(C)C)[C@@H]1[C@@H]3CC(C)C [IB-753]	< 5
CC(C)C[C@@H]1[C@H]2CN[C@@]3(C(=O)NCc4ccccc4)[C@@H](C2)CN(CCc2ccccc2)[C@@H]13 [IB-757]	< 5
CC(C)CNC(=O)[C@]12NC[C@H]3C[C@H]1CN(CCc1ccccc1)[C@H]2[C@@H]3Cc1ccccc1 [IB-759]	< 5
CC(C)CNC(=O)[C@]12NC[C@H]3C[C@H]1CN(CCc1ccccc1)[C@H]2[C@@H]3CC(C)C [IB-760]	< 5
CC(C)CNC(=O)[C@]12NC[C@H]3C[C@H]1CN(Cc1cccc4ccccc14)[C@H]2[C@@H]3CC(C)C [IB-762]	< 5
CC(C)CNC(=O)[C@]12NC[C@H]3C[C@H]1CN(Cc1cccc4ccccc14)[C@H]2[C@@H]3Cc1ccc(O)cc1 [IB-763]	10 to 30
CC(C)CNC(=O)[C@]12NC[C@H]3C[C@H]1CN(CC1CCCCC1)[C@H]2[C@@H]3Cc1ccc(O)cc1 [IB-770]	10 to 30
O=C(NCc1ccccc1)[C@]12NC[C@H]3C[C@H]1CN(Cc1ccc(F)cc1)[C@H]2[C@@H]3Cc1ccccc1 [IB-772]	< 5
